Source: the supplement of paper PMC10627819

Assays:
Experiment in all cases: fitness (endpoint OD595 vs no drug) (fraction); higher = more growth
S. aureus Newman = system: S. aureus Newman
Outline: (§1)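 In 384-well plates at 37 °C, cultures began at OD595 0.01 in 30 µl, with 55 µl used for S. pneumoniae. OD595 readings every 30 min for 14 h were corrected by the first reading. Fitness divides the stationary-phase transition optical density by the robust mean of no-drug control wells. The result is capped at 1.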

S. pneumoniae D39V = system: S. pneumoniae D39V
Outline: as §1

B. subtilis 168 = system: B. subtilis 168
Outline: as §1
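Note: OD595 on entry to stationary phase over no-drug wells; at most 1.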

O=C(O)c1cn(C2CC2)c2cc(N3CCNCC3)c(F)cc2c1=O [Ciprofloxacin] + CO[C@@]12[C@H](COC(N)=O)C3=C(C(=O)C(C)=C(N)C3=O)N1C[C@@H]1N[C@@H]12 [Mitomycin C]
Details	fitness
S. aureus Newman, first compound 0.0375 µg/mL, partner 0.0156 µg/mL	0.609
S. aureus Newman, first compound 0.0375 µg/mL, partner 0.0312 µg/mL	0.557
S. aureus Newman, first compound 0.0375 µg/mL, partner 0.0625 µg/mL	0.366
S. aureus Newman, first compound 0.075 µg/mL, partner 0.0156 µg/mL	0.573
S. aureus Newman, first compound 0.075 µg/mL, partner 0.0312 µg/mL	0.497
S. aureus Newman, first compound 0.075 µg/mL, partner 0.0625 µg/mL	0.219
S. aureus Newman, first compound 0.15 µg/mL, partner 0.0156 µg/mL	0.152
S. aureus Newman, first compound 0.15 µg/mL, partner 0.0312 µg/mL	0.0809
S. aureus Newman, first compound 0.15 µg/mL, partner 0.0625 µg/mL	0.0294
S. pneumoniae D39V, first compound 0.125 µg/mL, partner 0.001075 µg/mL	0.917
S. pneumoniae D39V, first compound 0.125 µg/mL, partner 0.002 µg/mL	0.75
S. pneumoniae D39V, first compound 0.125 µg/mL, partner 0.00215 µg/mL	0.892
S. pneumoniae D39V, first compound 0.125 µg/mL, partner 0.004 µg/mL	0.632
S. pneumoniae D39V, first compound 0.125 µg/mL, partner 0.0043 µg/mL	0.766
S. pneumoniae D39V, first compound 0.125 µg/mL, partner 0.008 µg/mL	0.322
S. pneumoniae D39V, first compound 0.25 µg/mL, partner 0.001075 µg/mL	0.861
S. pneumoniae D39V, first compound 0.25 µg/mL, partner 0.00215 µg/mL	0.822
S. pneumoniae D39V, first compound 0.25 µg/mL, partner 0.0043 µg/mL	0.736
S. pneumoniae D39V, first compound 0.5 µg/mL, partner 0.001075 µg/mL	0.658
S. pneumoniae D39V, first compound 0.5 µg/mL, partner 0.00215 µg/mL	0.643
S. pneumoniae D39V, first compound 0.5 µg/mL, partner 0.0043 µg/mL	0.523
S. pneumoniae D39V, first compound 0.5 µg/mL, partner 0.008 µg/mL	0.188

S. pneumoniae D39V, first compound 0.25 µg/mL, one replicate
Details	fitness
partner 0.002 µg/mL	0.541
partner 0.004 µg/mL	0.394
partner 0.008 µg/mL	0.154

O=C(O)c1cn(C2CC2)c2cc(N3CCNCC3)c(F)cc2c1=O [Ciprofloxacin] + O=C(O)[C@H]1/C(=C/CO)O[C@@H]2CC(=O)N21 [Clavulanic acid]
Details	fitness
B. subtilis 168, first compound 0.0098 µg/mL, partner 1.5 µg/mL	0.912
B. subtilis 168, first compound 0.0098 µg/mL, partner 3 µg/mL	0.85
B. subtilis 168, first compound 0.0098 µg/mL, partner 6 µg/mL	0.717
B. subtilis 168, first compound 0.0195 µg/mL, partner 1.5 µg/mL	0.758
B. subtilis 168, first compound 0.0195 µg/mL, partner 3 µg/mL	0.643
B. subtilis 168, first compound 0.039 µg/mL, partner 1.5 µg/mL	0.151
B. subtilis 168, first compound 0.039 µg/mL, partner 3 µg/mL	0.0402
B. subtilis 168, first compound 0.039 µg/mL, partner 6 µg/mL	0.0214
S. pneumoniae D39V, first compound 0.125 µg/mL, partner 0.5 µg/mL	0.957
S. pneumoniae D39V, first compound 0.125 µg/mL, partner 1 µg/mL	0.913
S. pneumoniae D39V, first compound 0.125 µg/mL, partner 2 µg/mL	0.796
S. pneumoniae D39V, first compound 0.25 µg/mL, partner 0.5 µg/mL	0.806
S. pneumoniae D39V, first compound 0.25 µg/mL, partner 1 µg/mL	0.788

fitness, S. aureus Newman, one replicate
Details	first compound 0.078 µg/mL	first compound 0.156 µg/mL	first compound 0.312 µg/mL
partner 0.03125 µg/mL	0.709	0.283	0.143
partner 0.0625 µg/mL	0.695	0.216	0.0875
partner 0.125 µg/mL	0.699	0.211	0.116

COc1cccc2c1C(=O)c1c(O)c3c(c(O)c1C2=O)C[C@@](O)(C(=O)CO)C[C@@H]3O[C@H]1C[C@H](N)[C@H](O)[C@H](C)O1 [Doxorubicin] + CC1=C(C(=O)O)N2C(=O)[C@@H](NC(=O)[C@H](N)c3ccccc3)[C@H]2SC1 [Cephalexin]
fitness
Details	first compound 0.25 µg/mL	first compound 0.5 µg/mL	first compound 0.625 µg/mL	first compound 1 µg/mL	first compound 1.25 µg/mL	first compound 2.5 µg/mL
B. subtilis 168, partner 0.125 µg/mL	–	–	0.917	–	0.897	0.733
B. subtilis 168, partner 0.25 µg/mL	–	–	0.964	–	0.89	0.68
B. subtilis 168, partner 0.5 µg/mL	–	–	0.969	–	0.941	0.655
S. aureus Newman, partner 0.25 µg/mL	–	–	0.771	–	0.824	0.744
S. aureus Newman, partner 0.5 µg/mL	–	–	0.844	–	0.834	0.758
S. aureus Newman, partner 1 µg/mL	–	–	0.823	–	0.861	0.83
S. pneumoniae D39V, partner 2 µg/mL	0.0496	0.0845	–	0.105	–	–
S. pneumoniae D39V, partner 4 µg/mL	0.0361	0.0467	–	0.0242	–	–

fitness, one replicate
Details	first compound 0.25 µg/mL	first compound 0.5 µg/mL	first compound 0.625 µg/mL	first compound 1 µg/mL	first compound 1.25 µg/mL	first compound 2.5 µg/mL
B. subtilis 168, partner 1 µg/mL	–	–	≥ 1	–	0.98	0.703
S. pneumoniae D39V, partner 0.125 µg/mL	0.866	0.98	–	0.905	–	–
S. pneumoniae D39V, partner 0.25 µg/mL	0.862	0.876	–	0.861	–	–
S. pneumoniae D39V, partner 0.5 µg/mL	0.878	0.872	–	0.898	–	–

CO/N=C(\C(=O)N[C@@H]1C(=O)N2C(C(=O)O)=C(COC(N)=O)CS[C@H]12)c1ccco1 [Cefuroxime] + CC1(C)S[C@@H]2[C@H](NC(=O)Cc3ccccc3)C(=O)N2[C@H]1C(=O)O [Penicillin G]
fitness, S. aureus Newman, one replicate
Details	first compound 0.04875 µg/mL	first compound 0.0975 µg/mL	first compound 0.195 µg/mL
partner 0.0195 µg/mL	0.873	0.849	0.889
partner 0.039 µg/mL	0.959	0.831	0.907
partner 0.078 µg/mL	0.898	0.888	0.906

COc1cccc2c1C(=O)c1c(O)c3c(c(O)c1C2=O)C[C@@](O)(C(=O)CO)C[C@@H]3O[C@H]1C[C@H](N)[C@H](O)[C@H](C)O1 [Doxorubicin] + CC1(C)S[C@@H]2[C@H](NC(=O)Cc3ccccc3)C(=O)N2[C@H]1C(=O)O [Penicillin G]
fitness, S. aureus Newman
Details	first compound 0.625 µg/mL	first compound 1.25 µg/mL	first compound 2.5 µg/mL
partner 0.0195 µg/mL	0.705	0.711	0.698
partner 0.039 µg/mL	0.727	0.718	0.734
partner 0.078 µg/mL	0.752	0.72	0.692

CC1(C)S[C@@H]2[C@H](NC(=O)Cc3ccccc3)C(=O)N2[C@H]1C(=O)O [Penicillin G] + C[n+]1ccc(-c2cc[n+](C)cc2)cc1 [Paraquat]
fitness, S. aureus Newman
Details	first compound 0.0195 µg/mL	first compound 0.039 µg/mL	first compound 0.078 µg/mL
partner 1.25 µg/mL	0.827	0.832	0.876
partner 2.5 µg/mL	0.863	0.871	0.827
partner 5 µg/mL	0.875	0.807	0.819
